Measurements from article PMC4417197, “Engineering Saccharomyces pastorianus for the co-utilisation of xylose and cellulose from biomass” (Microbial Cell Factories, 2015).

Key:
[1] = molecular target: T1, XR (xylose reductase, xyl1) (Trichoderma reesei, UniProt Q876L8); assay: NADPH oxidation at […] nm in cell-free extract of expressing yeast; format: biochemical; details: 50 mM xylose, 0.34 mM NADPH, 25 mM potassium phosphate pH 7.0, 30 C
T1 construct: cell-free extract
T1 sequence (Q876L8 1-324): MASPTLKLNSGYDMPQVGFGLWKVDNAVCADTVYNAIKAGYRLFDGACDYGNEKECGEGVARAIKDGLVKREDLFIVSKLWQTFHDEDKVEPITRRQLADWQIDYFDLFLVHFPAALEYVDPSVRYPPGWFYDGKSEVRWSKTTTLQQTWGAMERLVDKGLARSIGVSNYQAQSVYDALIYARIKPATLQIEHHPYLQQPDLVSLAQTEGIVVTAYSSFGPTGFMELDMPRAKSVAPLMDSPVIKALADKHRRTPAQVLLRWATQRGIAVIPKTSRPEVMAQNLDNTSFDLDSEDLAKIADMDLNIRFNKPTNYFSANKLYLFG

[2] = molecular target: T2, XDH (xylitol dehydrogenase, xdh1) (Trichoderma reesei, UniProt Q876R2); assay: NAD+ reduction at […] nm in cell-free extract of expressing yeast; format: biochemical; details: 0.15 M xylitol, 0.4 mM NAD+, 25 mM potassium phosphate pH 7.0
T2 construct: cell-free extract
T2 sequence (Q876R2 1-363): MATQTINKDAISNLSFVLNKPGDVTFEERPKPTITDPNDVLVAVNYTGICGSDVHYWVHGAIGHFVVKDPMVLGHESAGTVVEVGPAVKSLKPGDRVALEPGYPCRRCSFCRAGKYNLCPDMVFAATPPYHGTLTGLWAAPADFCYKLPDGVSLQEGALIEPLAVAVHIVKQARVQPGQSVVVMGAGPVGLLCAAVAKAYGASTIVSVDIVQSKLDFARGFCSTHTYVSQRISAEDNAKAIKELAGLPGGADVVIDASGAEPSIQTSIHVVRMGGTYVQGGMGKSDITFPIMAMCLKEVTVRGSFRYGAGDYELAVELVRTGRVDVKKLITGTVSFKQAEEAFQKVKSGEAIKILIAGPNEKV

In the case of `NC(=O)C1=CN([C@@H]2O[C@H](COP(=O)(O)OP(=O)(O)OC[C@H]3O[C@@H](n4cnc5c(N)ncnc54)[C@H](OP(=O)(O)O)[C@@H]3O)[C@@H](O)[C@H]2O)C=CC1` [NADPH], the “NADPH oxidation at 340 nm in cell-free extract of expressing yeast” value [1] is reported as “measuring the oxidation of the reduced form of nicotinamide adenine dinucleotide phosphate (NADPH)”.

In the case of `NC(=O)c1ccc[n+]([C@@H]2O[C@H](COP(=O)(O)OP(=O)(O)OC[C@H]3O[C@@H](n4cnc5c(N)ncnc54)[C@H](O)[C@@H]3O)[C@@H](O)[C@H]2O)c1` [NAD^+], the “NAD+ reduction at 340 nm in cell-free extract of expressing yeast” value [2] is reported as “measuring the reduction of nicotinamide adenine dinucleotide (NAD^+) to NADH”.
